Data published in patent US9073880B2, “2-(2-phenylethenyl) 1,3-benzodiazepine derivatives useful for the treatment of cancer” (Yissum Research Development Company of the Hebrew …, priority 2010, dated 2015).

What was measured:
[1] = test system: human colon carcinoma HCT15 cells; assay: Cell proliferation, HCT15 (Example 4); format: cell-based; settings: HCT-15, HCT15, colon cancer, compound in 2-hydroxypropyl-β-cyclodextrin
Description: Human ovary cancer A2780 cells lines were seeded at a density of 5000 cells/well, human melanoma A375 cells were plated at a density of 2,500 cells/well, human colon carcinoma HCT15 cells were plated at a density of 3,000 cells/well, human prostate carcinoma PC3 cells were plated at a density of 1,500 cells/well, human breast carcinoma MCF7 cells were plated at a density of 5,000 cells/well, human breast carcinoma MDA MB 468 cells were plated at a density of 6,000 cells/well, human myeloma U266, RPMI8226 and CAG cells were plated at a density of 10,000 cells/well. All cells were plated in 96-well plates in 90 μl growth medium containing 10% FCS, 100 units/ml penicillin and 100 μg/ml streptomycin. Compound 3 was added a day later in […] of 1% DMSO in DDW to obtain final concentrations of 0, 0.1, 0.3, 1, 3, and 10 μM. The final concentration of DMSO (0.1% DMSO) was kept constant in all samples. […] The optical density values were read at 630 nm in ELISA plate reader. Non-adhered cells were exposed to WST-1 reagent for 5 hours following 72 hours treatment with the inhibitors, and optical density values were read at 630 nm in ELISA plate reader. The data was analyzed in Microsoft Excel, using the vehicle control as 100% proliferation. […]

[2] = test system: human multiple myeloma MM1S cells; assay: Cytotoxicity of combination with Velcade in MM1S cells (CellTiter Glo); format: cell-based; settings: for α/a+β/b (synergism if <1): combination with Velcade, three days; for combined effect with Velcade versus Bliss additive effect: compound 0.1 or 0.2 M (so in the source), 1 and 1.5 nM Velcade, FIGS. 8 and 9
Description: Human multiple myeloma MM1S cells were plated at a density of 10,000 cells/well in 96-well plates in 90 μl growth medium containing 10% FCS, 100 units/ml penicillin and 100 μg/ml streptomycin. Velcade® (i.e. bortezomib or PS-341) was obtained from LC Laboratories. Compounds 3 and 5 were added a day later in 5 μl of 0.7% 2-hydroxypropyl-β-cyclodextrin in DDW to the multiple myeloma cell plates to obtain final concentrations of […]. Velcade® was added in 5 μl of 1% DMSO to obtain final concentrations of 0, 0.5, 1 and 1.5 nM. Three days later CellTiter Glo reagent (100 μl/well) was added to the medium (1:1), shaked, and following 10 min incubation transferred to 96-well white plates and read in a Luminometer. The data was analyzed in Microsoft Excel, using the vehicle control as 0% cytotoxicity. The assays were performed in triplicates. Cytotoxicity (%) was calculated as follows: [(absorbance of control cells—absorbance of drug-treated cells)/absorbance of control cells]×100. In FIGS. 8 and 9 the Bliss additivism model (Cardone et al. Science (1998), 282: 1318-1321) was used to calculate the combined effect using the following formula: Ebliss=EA+EB−EA×EB, where EA and EB are the fractional inhibitions obtained by drug A alone and drug B alone at specific concentrations. […] The synergic effect was calculated in an additional method in which the existence of α/a+β/b<1 was tested (a is the IC50 of drug A in the absence of drug B, α is the IC50 of drug A in the presence of drug B, b is the IC50 of drug B in the absence of drug A, β is the IC50 of drug B in the presence of drug A).

SMILES	IC50 [1] [nM]	α/a+β/b (synergism if <1) [2]	combined effect with Velcade versus Bliss additive effect [2]
O=c1c(O)cc2cnc(/C=C/c3cc(O)c(O)c(Br)c3)sc-2c1O [Compound 3]	700	0.7	strong synergistic effect
O=c1c(O)cc2cnc(/C=C/c3ccc(O)c(O)c3Br)sc-2c1O [Compound 5]	900	0.6	strong synergistic effect
